The assay concerns adult cycling cynomolgus macaques. The experiment in a line: animal model of intrauterine bleeding: IUS inserted in macaques, daily vaginal swabs scored for bleeding. The class given is in vivo. The settings on record: Group 1: IUS releasing 2 μg per day of levonorgestrel, 9 monkeys. How it is done:
The effects of administering via an intrauterine system (IUS) levonorgestrel alone, or in combination with indomethacin, were tested in animal model of intrauterine bleeding. The study was conducted using three groups of adult cycling cynomolgus macaques. The macaques were monitored to record regular menstrual cycles. Scheduled (menses) and unscheduled uterine bleeding and spotting was assessed daily by vaginal swabs, and menstrual blood loss was quantified by vaginal tampons.
After about two menstrual cycles (about 60 days), the macaques were assigned to three separate groups and laparotomized on days 6-9 of the follicular phase. For each macaque, an IUS was inserted by hysterotomy into the uterine lumen and sutured in place. Group 1 included 9 monkeys that were given an IUS that released 2 μg per day of levonorgestrel. Group 2 included 8 monkeys that were given an IUS that released 2 μg per day of levonorgestrel and 10 μg per day of indomethacin. Group 3 included 7 monkeys that were given an IUS that released 2 μg per day of levonorgestrel and 30 μg per day of indomethacin.
The frequency and type of bleeding was assessed by daily vaginal swabs. FIGS. 9A-9B illustrate the results of the different types of bleedings. Gray-shaed cells represent positive swab or frank menses, which is the most heavy form of bleeding. Diagonal-lined cells represent light positive swab, which is an intermediated type of bleeding.
The gray-shaded cells that were assigned represent the heaviest form of bleeding were assigned a score of 2. The diagonal-lined cells represent an intermediate type of bleeding and were assigned a score of 1.
For evaluation of bleeding days, the first 7 days after insertion of the IUS were neglected, since the insertion procedure by surgery causes some bleeding that is unrelated to treatment effects. FIGS. 9A-9B include data for a period of 80 days after the IUS was inserted in each of the macaques.

The mark [1] stands for this setting: 80 days after insertion, first 7 days neglected.

On to `C#C[C@]1(O)CC[C@H]2[C@@H]3CCC4=CC(=O)CC[C@@H]4[C@H]3CC[C@@]21CC` [levonorgestrel], for which the “average score for each of the macaques (heaviest bleeding = 2, intermediate = 1)” value is 11.9 and the “total score for all of the macaques (heaviest bleeding = 2, intermediate = 1)” value was found to be 107. Besides, under setting [1], the “average number of bleeding days per macaque” value was found to be 8.6 days and the “total number of bleeding days” value is given as 77 days.

The values are drawn from US20170312219A1, “METHOD OF CONTRACEPTION” (Bayer Oy, priority 2008, published 2017).
